# Measurements published in US20250241294A1, “ITACONATE PRESERVATION SOLUTION” (University Health Network, priority 2024, published 2025).
# Legend:
# [1] = system: Human BEAS-2B bronchial epithelial cells; test: BEAS-2B cold ischemia-reperfusion injury model: confluence by Incucyte imaging; assay type: cell-based; settings: for confluence, mean percent difference compared to standard LPD alone: immediately upon reperfusion
# Method: (§1) Human BEAS-2B bronchial epithelial cells were cultured until subconfluence in 96-well plates with standard media (DMEM+10% FBS). […] These parameters simulated the real-life environment of standard lung preservation.
# (§2) This was followed by up to 48 h of warm reperfusion at 37° C. in regular cell culture media (at 5% CO2). Regular cell media was used as negative control for the simulated cold ischemia, and regular LPD was used as positive control. Upon switching to LPD, the four different itaconate derivatives in the three different concentrations were assessed and compared to regular LPD and standard media during cold static preservation. Confluence and apoptosis measurements (based on Caspase3/7 dye) were taken by serial imaging in an Incucyte S3 Live Cell imaging device to assess the efficacy of the itaconate-containing solutions in preserving each cell culture.
# (§3) Four different itaconate molecules were tested, each in three different dosages and four replicates: underivatized itaconic acid (ITA) at 5 mM, 7.5 mM, and 10 mM; pH-corrected itaconic acid (NaOH-ITA) at 5 mM, 7.5 mM, and 10 mM; dimethyl itaconate (DI) at 0.125 mM, 0.25 mM, and 0.5 mM; and 4-octyl itaconate (4OI) at 0.125 mM, 0.25 mM, and 0.5 mM. […] Upon switching to LPD, the four different itaconate molecules in the three different concentrations each were assessed and compared to regular LPD (positive control) and standard media (negative control) during cold static preservation. Four replicates for each condition were used.
# FIG. 5D illustrates the cell confluence results of the in vitro phase. T=0 represents the cell confluence reached before the 18-hour period of cold ischemia described with respect to FIG. 5A. Cells were cultured until subconfluence (shown at t=4 h in FIG. 5D), followed by cold ischemia from t=4 h to t=22 h. T=22 h represents the beginning of warm reperfusion as described with respect to FIG. 5A.
# [2] = system: Human BEAS-2B bronchial epithelial cells; test: BEAS-2B cold ischemia-reperfusion injury model: cell morphology; assay type: cell-based
# Method: as §1, §2, §3
# For example, FIG. 6B illustrates the cell morphology of cells exposed to i) LPD (positive control), ii) DMEM (negative control), iii) ITA 10 mM, iv) DI 0.25 mM, and v) 4OI 0.25 mM following cold ischemia. FIG. 6C illustrates the cell morphology of these groups at reperfusion at t=22 h. […] The cells cultured in DMEM (the negative control) died during cold ischemia and were washed away during reperfusion, as shown by a comparison of FIG. 6B to FIG. 6C.
# pig lungs = test: Porcine ex vivo lung perfusion (EVLP) model of lung transplantation: lung physiology; design: species or system Yorkshire pigs
# Method: (§4) Lungs were surgically harvested from Yorkshire pigs weighing 31-38 kg. The dimethyl itaconate (DI) 0.25 mM solution was selected for testing in vivo due to positive performance in vitro. The lungs were randomized to be flushed with a flush solution of Low Potassium Dextran (LPD) in two groups, with or without 0.25 mM dimethyl itaconate (DI) (n=4 pairs of lungs per group). For flushing, 2 L of flush solution were administered antegrade, and […] was administered retrograde prior to lung static preservation. Retrograde flush solution was collected in a sterile bag and used to coat the lungs during the preservation period. When appropriate (based on assigned randomization), DI was added to all 3 L of flush solution. Surgical teams were blinded to the intervention.
# (§5) Still referring to FIG. 5C, lungs were subsequently preserved at 4° C. for an extended period of 36 h, then reperfused on EVLP for 6 h. EVLP allows lungs to be ventilated, reperfused to normothermia, and evaluated in an extracorporeal platform. EVLP performance was measured because it strongly correlates with post-transplant, recipient performance. Multiple physiological parameters of lung function were measured, and perfusate and tissue biopsies were collected. The measured physiological parameters included plateau airway pressure, change in partial pressure of oxygen delta PO2 (left atrium PO2—pulmonary artery PO2), static compliance, pulmonary vascular resistance (PVR), total perfusate loss, and wet to dry (W/D) ratios.
# (§6) Statistical analysis was performed with GraphPad prism 9.0 (GraphPad Software, San Diego, CA). Two-way repeated measures ANOVA with Dunn's post-test based on the distribution of data and Mann-Whitney test were used for comparison between groups, when appropriate. Values are presented as mean±SEM unless stated otherwise, and p values <0.05 are considered statistically significant.
# [3] = system: inflammatory cytokines in both tissue and perfusate; test: Porcine EVLP model: cytokine analysis of lung tissue and perfusate; assay type: in vivo, Yorkshire pigs; settings: DI 0.25 mM flush vs control
# Method: as §4, §5, §6
# [4] = system: Human bronchiole epithelial cells (BEAS2B); test: Intracellular free ferrous iron (FerroOrange) after cold storage; assay type: cell-based; settings: LPD + 0.25 mM DI vs LPD alone; 24 h at 10° C.; p<0.001
# Method: This example aimed to determine whether an organ preservation solution having 0.25 mM dimethyl itaconate (DI) could have anti-ferroptotic properties. Human bronchiole epithelial cells (BEAS2B) were cultured to sub-confluence in standard culture medium (DMEM+10% fetal bovine serum) at 37° C. Upon reaching sub-confluence, the culture medium was aspirated completely, and cells were washed twice with phosphate-buffered saline (PBS) before adding cooled LPD or LPD supplemented with DI at a concentration of 0.25 mM. Cells were then placed in a 10° C. refrigeration unit for 24 hours. […] To measure intracellular iron between treatment groups after storage for 24 h at 10° C., FerroOrange, a fluorescent probe for free ferrous ions (Fe2+), was used according to the manufacturer's protocol (Dojindo Molecular Laboratories, MD, USA).
# A […] FerroOrange solution was prepared in serum-free DMEM. Cells were washed with serum-free DMEM three times before being exposed to FerroOrange solution. The plate was then stored at 37° C. for 30 minutes. Fluorescence was quantified with a Cytation microplate reader (BioTek, VT, USA), with the top reading mode at an excitation wavelength of 543 nm and emission wavelength of 580 nm.
# [5] = system: Human BEAS-2B bronchial epithelial cells; test: BEAS-2B cold ischemia-reperfusion injury model: apoptosis (Caspase3/7 dye); assay type: cell-based; settings: immediately upon reperfusion, p<0.001
# Method: as §1
# This was followed by up to 48 h of warm reperfusion at 37° C. in regular cell culture media (at 5% CO2). Regular cell media was used as negative control for the simulated cold ischemia, and regular LPD was used as positive control. Upon switching to LPD, the four different itaconate derivatives in the three different concentrations were assessed and compared to regular LPD and standard media during cold static preservation. […]
# as §3, with “Four replicates for each condition were used.” left out
compound,measurement,setting,value
"C=C(CC(=O)OCCCCCCCC)C(=O)O [4OI, 4-octyl itaconate]",cell confluence compared to standard LPD alone or DI,"[1]; 4OI in LPD, 18 h cold ischemia, reperfusion",did not perform favorably
same,cell morphology,"[2]; 0.25 mM and 0.5 mM 4OI in LPD, 18 h cold ischemia at 4° C., reperfusion",morphological cell injury to a lower extent
"C=C(CC(=O)OC)C(=O)OC [DI, dimethyl itaconate]",confluence ranking among tested solutions,[1]; DI 0.125 mM,highest confluence
same,"confluence, mean percent difference compared to standard LPD alone","[1]; DI 0.125 mM, CI 2.0-13.7, p<0.01",7.84%
same,confluence ranking among tested solutions,[1]; DI 0.25 mM,highest confluence
same,"confluence, mean percent difference compared to standard LPD alone","[1]; DI 0.25 mM, CI 12.34-0.14, p<0.05",6.24%
same,confluence compared to positive control (LPD),"[1]; after 24 h of reperfusion, p<0.001",differences remained favoring DI
same,cellular morphology,"[2]; DI in LPD, 18 h cold ischemia at 4° C., reperfusion (FIG. 6D)","did not indicate any signs of shrinkage, pyknosis, or karyorrhexis"
same,areas of edema on dorsal lung surface,"pig lungs; flush LPD with 0.25 mM DI vs LPD, 36 h at 4° C., after 6 h of perfusion",more pronounced in the control group when compared to the DI group
same,plateau airway pressures,"pig lungs; flush LPD+DI 0.25 mM vs LPD, 36 h at 4° C., 6 h EVLP, p<0.0001",lower
same,delta PO2 (left atrium PO2—pulmonary artery PO2),"pig lungs; flush LPD+DI 0.25 mM vs LPD, 36 h at 4° C., 6 h EVLP, p<0.01",higher
same,static compliances,"pig lungs; flush LPD+DI 0.25 mM vs LPD, 36 h at 4° C., 6 h EVLP, p<0.05",higher
same,total perfusate loss,"pig lungs; flush LPD+DI 0.25 mM vs control, 6 h EVLP, not statistically significant",trend toward reduced total perfusate loss
same,wet-to-dry ratios,"pig lungs; flush LPD+DI 0.25 mM vs control, trend, not statistically significant",reduced wet-to-dry ratios
same,IL-6 expression levels in the perfusate,"[3]; after 6 hours, p<0.05",significantly reduced
same,IL-8 expression levels in the perfusate,"[3]; after 6 hours, p<0.05",reduced IL-8 expression levels
same,perfusate expression of TNF-α,"[3]; after 6 hours, p<0.05",significantly reduced perfusate expression of TNF-α
same,IL-10 expression levels in the perfusate,"[3]; after 6 hours, p<0.05 (FIG. 5M)",reduced IL-10 expression levels
same,tissue IL-8 expression,"[3]; lung tissue, p<0.0001",reduced tissue IL-8 expression
same,intracellular iron (FerroOrange fluorescence),[4],significantly reduced amount of intracellular iron
"C=C(CC(=O)O)C(=O)O [ITA, itaconic acid]",confluence over reperfusion,"[1]; ITA in LPD, over 48 hours of reperfusion at 37° C.",stable confluence
same,apoptosis counts compared to positive controls,[5]; ITA in LPD,elevated apoptosis counts
same,cell morphology,"[2]; ITA in LPD (10 mM shown), 18 h cold ischemia at 4° C., 50% O2, compared to LPD","cell shrinkage, nuclear pyknosis (condensation), and start of karyorrhexis (fragmentation), consistent with irreversible cell injury"
"C=C(CC(=O)O)C(=O)O [NaOH-ITA, itaconic acid]",apoptosis counts compared to positive controls,[5]; higher concentrations of NaOH-ITA,elevated apoptosis counts
same,cell morphology,"[2]; higher concentrations of NaOH-ITA in LPD, after 18 h cold ischemia at 4° C.",presented morphological changes
